The results in this text go back to ChEMBL document CHEMBL5725495, “Heterocyclylamines as PI3K inhibitors” (2017).

Molecules are shown by their SMILES. pIC50: −log10 of the molar value.

The nature of this assay: A2 PI3Kdelta Scintillation Proximity Assay: Lipid kinase substrate, phosphoinositol-4,5-bisphosphate (PIP2), are purchased from Echelon Biosciences (Salt Lake City, Utah). PI3K isoforms α, β, δ and γ are purchased from Millipore (Bedford, Mass.). ATP, MgCl2, DTT, EDTA, MOPS and CHAPS are purchased from Sigma-Aldrich (St. Louis, Mo.). The kinase reaction are conducted in clear-bottom 96-well plate from Thermo Fisher Scientific in a final volume of 24 μL. Inhibitors are first diluted serially in DMSO and added to the plate wells before the addition of other reaction components. The final concentration of DMSO in the assay is 0.5%. The PI3K assays are carried out at room temperature in 20 mM MOPS, pH 6.7, 10 mM MgCl2, 5 mM DTT and CHAPS 0.03%. The reaction mixture is prepared containing 50 μM PIP2, kinase and varying concentration of inhibitors. Reactions are initiated by the addition of ATP containing 2.2 μCi [γ-33P]ATP to a final concentration of 1000 μM. The final concentration of PI3K isoforms α, β, δ and γ in the assay were 1.3, 9.4, 2.9 and 10.8 nM, respectively. Reactions are incubated for 180 minutes and terminated by the addition of 100 μL of 1 M potassium phosphate pH 8.0, 30 mM EDTA quench buffer. A 100 μL aliquot of the reaction solution are then transferred to 96-well Millipore MultiScreen IP 0.45 μm PVDF filter plate (The filter plate is prewetted with 200 μL 100% ethanol, distilled water, and 1 M potassium phosphate pH 8.0, respectively). The filter plate is aspirated on a Millipore Manifold under vacuum and washed with 18×200 μL wash buffer containing 1 M potassium phosphate pH 8.0 and 1 mM ATP. After drying by aspiration and blotting, the plate is air dried in an incubator at 37° C. overnight. Packard TopCount adapter (Millipore) is then attached to the plate followed with addition of 120 μL Microscint 20 scintillation cocktail (Perkin Elmer) in each well. After the plate sealing, the radioactivity of the product is determined by scintillation counting on Topcount (Perkin-Elmer). IC50 determination is performed by fitting the curve of percent control activity versus the log of the inhibitor concentration using the GraphPad Prism 3.0 software. On the set-up: species or system Homo sapiens.
One may read the pIC50 as −log10 of the IC50, conventionally taken in molar units. On to `CCOc1c([C@@H](C)n2nc(C)c3c(N)ncnc32)cc(Cl)c(F)c1C1CN(C(C)C)C1` (single isomer, unassigned), for which the pIC50 was greater than 8.00.

As to `CCOc1c([C@H](C)n2nc(C)c3c(N)ncnc32)cc(Cl)c(C#N)c1C1CN(CCOC)C1`, the pIC50 was greater than 8.00.

Turning to `COc1c(C(C)n2nc(C)c3c(N)ncnc32)cc(Cl)c(C)c1-c1ccc(C(=O)N(C)C)nc1` (stereo not drawn), the pIC50 was greater than 8.00.

Consider `COc1c([C@@H](C)n2nc(C)c3c(N)ncnc32)cc(Cl)c(C#N)c1C1CN(C2CCOC2)C1` (stereo partly drawn), for which the pIC50 was greater than 8.00.

Take `COc1c(C(C)n2cc(C)c3c(N)ncnc32)cc(Cl)c(C#N)c1C1CN(C(C)C)C1` (stereo not drawn): the pIC50 was greater than 8.00.

Consider `CCOc1c(C(C)n2nc(C)c3c(N)ncnc32)cc(Cl)c(C)c1-c1ccc(C(=O)N(C)C)nc1` (stereo not drawn), for which the pIC50 was greater than 8.00.

In the case of `COc1c([C@@H](C)n2nc(C(F)F)c3c(N)ncnc32)cc(Cl)c(F)c1C1CN(CCO)C1` (single isomer, unassigned), the pIC50 was greater than 8.00.

With `COc1c([C@H](C)n2nc(C)c3c(N)ncnc32)cc(Cl)c(C#N)c1C1CN(C(C)CO)C1` (stereo partly drawn), the pIC50 was greater than 8.00.

Take `COc1c(C(C)n2nc(C)c3c(N)ncnc32)cc(Cl)c(C#N)c1C1CN(CCO)C1` (stereo not drawn): the pIC50 was greater than 8.00.

In the case of `CCOc1c(C(C)n2nc(C)c3c(N)ncnc32)cc(Cl)c(F)c1C1CN(C[C@H](C)O)C1` (stereo partly drawn), the pIC50 is greater than 8.00.

With `COc1c([C@@H](C)n2nc(C)c3c(N)ncnc32)cc(Cl)c(C#N)c1C1CN(C(C)CO)C1` (stereo partly drawn), the pIC50 was greater than 8.00.

In the case of `COc1c([C@@H](C)n2nc(C)c3c(N)ncnc32)cc(Cl)c(C#N)c1C1CN(CC2CCOC2)C1` (stereo partly drawn), the pIC50 was greater than 8.00.

`CCOc1c([C@@H](C)n2nc(C)c3c(N)ncnc32)cc(Cl)c(C#N)c1C1CN(C(C)CO)C1` (stereo partly drawn): the pIC50 is greater than 8.00.

For the molecule `COc1c(C(C)n2nc(C)c3c(N)ncnc32)cc(Cl)c(C)c1C1CN(C[C@H](C)O)C1` (stereo partly drawn), the pIC50 was greater than 8.00.

In the case of `COc1c(C(C)n2nc(C(F)F)c3c(N)ncnc32)cc(C#N)c(C)c1C1CN(C[C@H](C)O)C1` (stereo partly drawn), the negative-log IC50 (pIC50) is greater than 8.00.

Consider `COc1c([C@H](C)n2nc(C)c3c(N)ncnc32)cc(Cl)c(C#N)c1C1CN(CC2CCOC2)C1` (stereo partly drawn), for which the pIC50 is greater than 8.00.

Turning to `CCOc1c([C@H](C)n2nc(C)c3c(N)ncnc32)cc(Cl)c(C#N)c1C1CN(C(C)CO)C1` (stereo partly drawn), the pIC50 was greater than 8.00.

For `COc1c([C@@H](C)n2nc(C(F)F)c3c(N)ncnc32)cc(Cl)c(F)c1C1CN(C)C1`, the pIC50 was greater than 8.00.
